Where no end group is shown, it is not given here. [ ]: non-standard residue; d: D form.
Key:
[1] = test system: LHRHR-positive A2780 human ovarian carcinoma cells; assay: Cytotoxicity, modified MTT assay; assay type: cell-based
Method: In contrast, LHRH-BH3 peptide was not toxic in cancer cells not expressing LHRHR. Further, non-targeted Ant-BH3 peptide was toxic in both LHRHR-positive and negative cancer cells. […] Thus, the LHRH peptide specifically targets cancer cells expressing the LHRHR and facilitates the uptake of LHRH-conjugates.
Cytotoxicity of CPT, CPT-PEG, CPT-PEG-BH3, and CPT-PEG-LHRH conjugates and the combination of CPT-PEG-BH3 with CPT-PEG-LHRH conjugates was analyzed using a modified MTT assay (Minko, et al. (1998) supra) in sensitive A2780 and multidrug resistant A2780/AD human ovarian carcinoma cells.
Cytotoxicity. The cytotoxicity of drugs were assessed using a modified MTT (3-(4,5-dimethylthiazol-2-yl)-2,5-diphenyltetrazolium bromide) assay (Kunath, et al. (2000) Eur. J. Pharm. Biopharm 49:11-15; Minko, et al. (1998) J. Controlled Rel. 54:223-233; Minko, et al. (1999) J. Controlled Rel. 59:133-148; Minko, et al. (2002) Cancer Chemother. Pharmacol. 50:143-150). To measure cytotoxicity, cells were incubated in a 96-well microtiter plate with 45 different equivalent concentrations of CPT ranging from […] in a complex conjugate. Six wells were used for control cells. The duration of incubation was varied from 3 to 72 hours to find an optimal range of incubation time for each complex conjugate.

[2] = test system: human ovarian carcinoma cells; assay: Cytotoxicity (IC50 dose) of Ant, Ant-BH3 peptide and DOX; assay type: cell-based; settings: highest possible concentration
Method: By way of example, the effectiveness of a BH3 peptide ([…] SEQ ID NO:1) to increase cell death by inducing the mitochondrial dysfunction leading to necrosis was measured. BH3 peptide was delivered into human ovarian carcinoma cells by the Antennapedia (Ant) internalization sequence (Arg-Gln-Ile-lys-[…] SEQ ID NO:2). Mitochondrial function was assessed by flow cytometry analysis using the lipophilic cationic fluorescent probe 5,5′,6,6′-tetrachloro-1,1′,3,3′-tetraethylbenzimidazolcarbo-cyanine iodide (JC-1). This probe exists as a monomer, and upon excitation at 490 nm, emits light at 527 nm resulting in green fluorescence. At high mitochondrial transmembrane potential, JC-1 forms multimers, known as J-aggregates, and emits light at 590 nm upon excitation at 490 nm resulting in red fluorescence. Therefore, the red/green fluorescence ratio measured by flow cytometry reflects the number of functioning mitochondria. […] The effect of the Ant-BH3 peptide on mitochondrial transmembrane potential was also determined.
Cytotoxicity. The cytotoxicity of drugs were assessed using a modified MTT (3-(4,5-dimethylthiazol-2-yl)-2,5-diphenyltetrazolium bromide) assay (Kunath, et al. (2000) Eur. J. Pharm. Biopharm 49:11-15; Minko, et al. (1998) J. Controlled Rel. 54:223-233; Minko, et al. (1999) J. Controlled Rel. 59:133-148; Minko, et al. (2002) Cancer Chemother. Pharmacol. 50:143-150). […]

[3] = test system: A2780 human ovarian carcinoma cells; assay: RT-PCR expression of caspases, APAF-1 and SMAC; assay type: cell-based; settings: A2780 cells
Method: The effect of the LHRH-BH3 peptide on apoptosis was analyzed by measuring transcriptional and translational levels and activity of human caspases. […] Active caspase 9, in turn, activates a cascade of downstream caspases, as evidenced by increased expression levels, which subsequently leads to induction of apoptosis.
Cystein aspartate-specific proteases (caspases). Three approaches were used to analyze the role of each of the human caspases in the apoptosis induction. First, the expression of genes encoding human caspases 1-10 and the Apoptotic Protease Activating Factor (APAF-1) and Second Mitochondria-Derived Activator of Caspase (SMAC) were studied by RT-PCR (Minko, et al. (1999) supra; Minko, et al. (2000) supra). […] Therefore, in addition to the measurement of the gene expression, the amount of active caspases and activity of the enzymes was measured. The amount of active caspases was estimated by western blot analysis. The activity of expressed caspases was measured using the Caspase Protease Assay kit (MBL International, Watertown, Mass.) or a colorimetric protease assay kit (PanVera, Madison, Wis.) (Minko, et al. (2001) supra). Cells were separately incubated with the conjugates for 48 hours. The assay colormetric assay is based on the spectrophotometric detection of the chromophore p-nitroanilide (pNA) after cleavage from the substrate, X-pNA. An increase in caspase activity was determined by comparing levels in cells exposed to conjugates to levels in cells of the untreated control incubated with saline.
Gene expression. A combination of reverse transcription (RT) and polymerase chain reaction (PCR) was used for the analysis of gene expression as described (Minko, et al. (1999) J. Controlled Rel. 59:133-148). Briefly, total cellular RNA was isolated using an RNeasy kit (QIAGEN,™, Valencia, Calif.) and a […]™ micro-spin homogenizer (QIAGEN). First-strand cDNA was synthesized by Ready-To-Go You-Prime First-Strand Beads (Amersham Biosciences, Piscataway, N.J.) according to the manufacturer's instructions with 2 μg of total cellular RNA (from 1×10^7 cells) and 100 ng of random hexadeoxynucleotide primer (Amersham Biosciences, Piscataway, N.J.). After synthesis, the reaction mixture was diluted 1:3 with water and immediately subjected to PCR, which was carried out using GenAmp PCR System 2400 (Perkin Elmer Instruments, Shelton, Conn.). The pairs of primers used to amplify each type of cDNA and PCR regimes are well-known in the art (Kunath, et al. (2000) supra; Minko, et al. (2003) supra; Minko, et al. (2002) supra; Minko, et al. (1999) supra; Minko, et al. (2000) supra; Minko, et al. (2001) supra). PCR products were separated in 4% NUSIEVE® 3:1 RELIANT® agarose gels (BMA, East Rutherford, N.J.) in 1×TBE buffer (0.089 M Tris/Borate, 0.002 M EDTA, pH 8.3) by submarine electrophoresis. The gels were stained with ethidium bromide and digitally photographed. To calculate the size and amount of PCR products, a Low DNA Mass ladder (GibcoBRL, Carlsbad, Calif.) was used. β2-microglobulin was used as an internal standard and to confirm the efficacy of PCR (Kunath, et al. (2000) supra; Minko, et al. (2001) supra).

LHRH receptor = target: T1, LHRH receptor (human, UniProt P30968 1-328); assay: cell-based or functional assay
T1 sequence (looked up): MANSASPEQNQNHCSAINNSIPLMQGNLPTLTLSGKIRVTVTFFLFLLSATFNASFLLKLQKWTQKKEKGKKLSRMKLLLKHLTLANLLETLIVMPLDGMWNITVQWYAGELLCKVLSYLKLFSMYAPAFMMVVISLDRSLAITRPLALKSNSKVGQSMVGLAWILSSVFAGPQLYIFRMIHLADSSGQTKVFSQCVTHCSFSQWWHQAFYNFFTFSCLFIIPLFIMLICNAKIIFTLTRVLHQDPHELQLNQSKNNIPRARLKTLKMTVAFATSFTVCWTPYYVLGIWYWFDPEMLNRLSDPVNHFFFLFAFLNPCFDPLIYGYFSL

CCNC(=O)[C@@H]1CCCN1C(=O)[C@H](CCCNC(=N)N)NC(=O)[C@H](CC(C)C)NC(=O)[C@@H](CCCCN)NC(=O)[C@H](Cc1ccc(O)cc1)NC(=O)[C@H](CO)NC(=O)[C@H](Cc1c[nH]c2ccccc12)NC(=O)[C@H](Cc1c[nH]cn1)NC(=O)[C@@H]1CCC(=O)N1 [LHRH peptide, LHRH-Lys^6-des-Gly^10-Pro^9-ethylamide, reference compound]
toxicity ([1]; LHRHR-positive cancer cells, up to the highest possible concentration): did not have any significant toxicity

Arg-Gln-Ile-lys-Ile-Trp-Phe-Gln-Asn-Arg-Arg-Met-Lys-Trp-Lys-Lys (RQIKIWFQNRRMKWKK; Antennapedia internalization peptide)
concentration up to which not toxic [2]: > 1 mg/mL

Met-Gly-Gln-Val-Gly-Arg-Gln-Leu-Ala-Ile-Ile-Gly-Asp-Asp-Ile-Asn-Arg-Arg-Tyr (MGQVGRQLAIIGDDINRRY; Synthetic BH3 domain peptide) [BH3 peptide]
expression of caspases 1, 4, and 5 [3]: not expressed | concentration up to which not toxic ([1]; A2780, maximal possible concentration limited by solubility): > 1 mg/mL

B1: LHRH-BH3 peptide (peptide)
peptide 1: QHWSY[dK]LRP-NHEt
peptide 2: MGQVGRQLAIIGDDINRRY
modifications: ends and bridges not checked; also: LHRH analog and BH3 peptide are joined, the linkage is not given here
cytotoxicity IC50 (modified MTT assay), LHRHR-positive A2780 human ovarian cancer cells (LHRH receptor): 3.97 ng/mL | toxicity in MCF-7 cells (LHRHR expression 1.6-fold less) relative to toxicity in A2780 cells, fold less (LHRH receptor): 10 fold | toxicity in PC-3 cells (LHRHR expression 3.2-fold less) relative to toxicity in A2780 cells, fold less (LHRH receptor): 100 fold

B2: LHRH-Lys^6-des-Gly^10-Pro^9-ethylamide (active analog of the LHRH peptide) (peptide)
peptide: QHWSY[dK]LRP-NHEt
modifications: ends and bridges not checked
concentration of LHRH that decreased cytotoxicity of LHRH-BH3 peptide by 50% (EC50 dose of LHRH peptide), A2780 cells (LHRH receptor): 7.3e-05 ng/mL

— US8124051B2, “Complex drug delivery composition and method for treating cancer” (priority 2003, dated 2012)
